# Experimental data taken from paper PMC3265452 (PLoS Neglected Tropical Diseases, 2012).
# Counter-ions that a name gives are not always drawn. Like-named read-outs stand apart in the source and are kept apart here.
# Biological target: AaDOP2 (Aedes aegypti, UniProt H6D5H2)
# Experiment: AaDOP2 antagonist screen of the LOPAC1280 library (HEK-CRELuc-Aadop2 cells, luminescence)
# Assay type: cell-based
# [1] = 10 µM compound, 300 nM dopamine, 2 hr, hit = compound effect <20
# AaDOP2, sequence (H6D5H2 1-476): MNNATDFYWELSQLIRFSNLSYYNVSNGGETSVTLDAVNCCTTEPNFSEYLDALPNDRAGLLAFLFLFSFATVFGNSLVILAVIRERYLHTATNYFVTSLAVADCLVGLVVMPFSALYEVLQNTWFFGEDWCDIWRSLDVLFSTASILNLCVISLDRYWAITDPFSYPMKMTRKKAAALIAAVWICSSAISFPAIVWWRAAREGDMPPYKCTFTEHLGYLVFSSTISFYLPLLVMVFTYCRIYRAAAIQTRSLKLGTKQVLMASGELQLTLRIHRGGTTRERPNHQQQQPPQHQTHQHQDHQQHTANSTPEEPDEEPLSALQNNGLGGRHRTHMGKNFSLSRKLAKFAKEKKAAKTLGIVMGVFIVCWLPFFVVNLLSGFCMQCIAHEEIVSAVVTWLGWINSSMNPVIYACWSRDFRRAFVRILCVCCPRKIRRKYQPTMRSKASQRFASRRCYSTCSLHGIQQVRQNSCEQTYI
Structure (SMILES),"Compound effect (percent receptor signaling in presence of test compound, relative lux units relative to the SCH23390 control)","Compound effect (percent receptor signaling in presence of test compound, relative lux units relative to the SCH23390 control) [1] [%]"
"O=c1n(CCCN2CCN(c3cccc(Cl)c3)CC2)nc2ccccn12 [Compound 1188, Trazodone hydrochloride]",97,–
"COc1cc(C=C(C#N)C#N)cc(O)c1O [Compound 1189, Tyrphostin AG 34]",74,–
"C[C@]12C=CC(=O)C=C1CC[C@H]1[C@@H]3C[C@@H](O)[C@](O)(C(=O)CO)[C@@]3(C)C[C@H](O)[C@@]12F [Compound 1190, Triamcinolone]",108,–
"CC(COc1ccc(/C=C/c2ccccc2)cc1)[N+](C)(C)C.[I-] (stereo not drawn) [Compound 1192, N,N,N-trimethyl-1-(4-trans-stilbenoxy)-2-propylammonium iodide]",79,–
"Cc1ccc(/C(=C\CN2CCCC2)c2ccccn2)cc1.Cl [Compound 1193, Triprolidine hydrochloride]",–,78
"N#CC(C#N)=C(N)/C(C#N)=C/c1ccc(O)cc1 [Compound 1194, Tyrphostin AG 112]",118,–
"N#CC(C#N)=Cc1ccc(O)c(O)c1 [Compound 1196, Tyrphostin 23]",79,–
"Cc1ccc(S(=O)(=O)N[C@@H](CCCCN)C(=O)CCl)cc1.Cl [Compound 1198, Na-p-Tosyl-L-lysine chloromethyl ketone hydrochloride]",100,–
"N#CC(C#N)=Cc1cc(O)c(O)c(O)c1 [Compound 1199, Tyrphostin 25]",113,–
"FC(F)(F)c1ccccc1-n1ccnc1 [Compound 1200, 1-[2-(Trifluoromethyl)phenyl]imidazole]",86,–
"CC(=O)O[C@H]1C(=O)[C@@]2(C)[C@H]([C@H](OC(=O)c3ccccc3)[C@]3(O)C[C@H](OC(=O)[C@H](O)[C@@H](NC(=O)c4ccccc4)c4ccccc4)C(C)=C1C3(C)C)[C@]1(OC(C)=O)CO[C@@H]1C[C@@H]2O [Compound 1201, Taxol]",84,–
"CCCCNc1ccc(C(=O)OCCN(C)C)cc1 [Compound 1202, Tetracaine hydrochloride]",78,–
"N#C/C(=C\c1ccc(O)c(O)c1)C(N)=S [Compound 1203, Tyrphostin 47]",61,–
"N#CC(C#N)=C(N)/C(C#N)=C/c1cc(O)c(O)c(O)c1 [Compound 1204, Tyrphostin 51]",122,–
"COc1cc(/C=C(\C#N)C(=O)c2ccc(O)c(O)c2)cc(I)c1O [Compound 1206, I-OMe-Tyrphostin AG 538]",96,–
"N#C/C(=C\c1ccc(O)c(O)c1)C(=O)c1ccc(O)c(O)c1 [Compound 1207, Tyrphostin AG 538]",75,–
"COc1cc(Cc2cnc(N)nc2N)cc(OC)c1OC [Compound 1208, Trimethoprim]",92,–
"CNCC[C@@H](Oc1ccccc1C)c1ccccc1 [Compound 1209, Tomoxetine]",79,–
"COC(=O)c1c(-c2cc(OC)c(OC)c(OC)c2)c2ccnc(OCc3ncccn3)c2c(=O)n1Cc1ccnc(C)c1 [Compound 1210, T-0156]",56,–
"CN1[C@@H]2CC[C@H]1C[C@@H](OC(=O)c1cc(Cl)cc(Cl)c1)C2 [Compound 1211, 3-Tropanyl-3,5-dichlorobenzoate]",97,–
"S=C([S-])OC1CC2CC1C1CCCC21.[K+] [Compound 1213, D-609 potassium]",–,87
"C/C=C(/C)C(=O)O[C@H]1C(C)=C2[C@H]([C@@H]1OC(=O)CCCCCCC)[C@@](C)(OC(C)=O)C[C@H](OC(=O)CCC)[C@@]1(O)[C@H]2OC(=O)[C@@]1(C)O [Compound 1215, Thapsigargin]",103,–
"N#CC(C#N)=Cc1ccc([N+](=O)[O-])c(O)c1 [Compound 1216, Tyrphostin AG 126]",100,–
"CC/C(=C(\c1ccccc1)c1ccc(OCCN(C)C)cc1)c1ccccc1 [Compound 1217, Tamoxifen citrate]",87,–

Structure (SMILES),"Compound effect (percent receptor signaling in presence of test compound, relative lux units relative to the SCH23390 control)","Compound effect (percent receptor signaling in presence of test compound, relative lux units relative to the SCH23390 control) [1] [%]"
"CC(C)(C)c1ccc(C(O)CCCN2CCC(C(O)(c3ccccc3)c3ccccc3)CC2)cc1 (stereo not drawn) [Compound 1218, Terfenadine]",41,–
"Cl.O=c1[nH]oc2c1CCNC2 [Compound 1220, THIP hydrochloride]",95,–
"O=C(CCCN1CCC(O)(c2cccc(C(F)(F)F)c2)CC1)c1ccc(F)cc1 [Compound 1221, Trifluperidol hydrochloride]",68,–
"CN1[C@@H]2CC[C@H]1CC(OC(=O)c1c[nH]c3ccccc13)C2.Cl (stereo partly drawn) [Compound 1222, 3-Tropanyl-indole-3-carboxylate hydrochloride]",89,–
"CCCCNc1c(C(=O)OCC)c(C)nc2c1cnn2CC [Compound 1223, Tracazolate]",113,–
"C[N+]1(C)C2CCC1CC(OC(=O)c1c[nH]c3ccccc13)C2.[I-] (stereo not drawn) [Compound 1224, 3-Tropanylindole-3-carboxylate methiodide]",91,–
"Cc1scc2c1N(C(=O)CN1CCN(C)CC1)c1ccccc1NC2=O [Compound 1225, Telenzepine dihydrochloride]",77,–
"S=C(NC1CCCCC1)N1CCC(c2cnc[nH]2)CC1 [Compound 1226, Thioperamide maleate]",90,–
"CCN(CC)C(=O)N[C@H]1C[C@@H]2c3cccc4[nH]cc(c34)C[C@H]2N(C)C1 [Compound 1228, R(+)-Terguride]",–,73
"CC(C)(C)c1cc(C=C(C#N)C#N)cc(C(C)(C)C)c1O [Compound 1230, Tyrphostin A9]",25,–
"CP(=O)(O)C1=CCNCC1 [Compound 1231, TPMPA]",112,–
"CCCCC/C=C\C[C@@H](O)/C=C/c1cccc(C[C@@H](O)CCCCO)n1 [Compound 1232, U-75302]",107,–
"O=c1ccn([C@@H]2O[C@H](COP(=O)([O-])OP(=O)([O-])[O-])[C@@H](O)[C@H]2O)c(=O)[nH]1.[Na+].[Na+].[Na+] [Compound 1233, Uridine 5'-diphosphate sodium]",78,–
"C[C@]12C=CC(=O)C=C1CC[C@@H]1C2=CC[C@]2(C)[C@@H](C(=O)CN3CCN(c4cc(N5CCCC5)nc(N5CCCC5)n4)CC3)CC[C@@H]12.O=C(O)/C=C\C(=O)O [Compound 1234, U-74389G maleate]",88,–
"Cc1c(C)c2c(c(C)c1O)CCC(C)(CN1CCN(c3cc(N4CCCC4)nc(N4CCCC4)n3)CC1)O2.Cl.Cl (stereo not drawn) [Compound 1235, U-83836 dihydrochloride]",103,–
"COc1ccc2c(c1)CC[C@@H]1[C@@H]2CC[C@]2(C)[C@@H](NCCCCCCN3C(=O)C=CC3=O)CC[C@@H]12 [Compound 1236, U-73122]",80,–
"O=C(O)C=Cc1c[nH]cn1 [Compound 1238, 4-Imidazoleacrylic acid]",74,–
"COc1ccccc1N1CCN(CCCNc2cc(=O)n(C)c(=O)n2C)CC1 [Compound 1239, Urapidil hydrochloride]",94,–
"COc1ccccc1N1CCN(CCCNc2c(C)c(=O)n(C)c(=O)n2C)CC1 [Compound 1240, Urapidil, 5-Methyl-]",91,–
"Brc1c(NC2=NCCN2)ccc2nccnc12 [Compound 1242, UK 14,304]",87,–
"CCCN(CCC)[C@H]1CCc2c(F)ccc(O)c2C1.Cl [Compound 1244, S(-)-UH-301 hydrochloride]",90,–
"CCCN(CCC)[C@@H]1CCc2c(F)ccc(O)c2C1.Cl [Compound 1245, R(+)-UH-301 hydrochloride]",97,–
"CCCN(CCC)C1Cc2cc(OC)c(OC)cc2C1.O=C(O)/C=C\C(=O)O [Compound 1249, U-99194A maleate]",97,–
"N#CC(=C(/N)Sc1ccccc1N)/C(C#N)=C(/N)Sc1ccccc1N [Compound 1250, U0126]",108,–
